# In patent US5770625A, “Butyryl-tyrosinyl spermine, analogs thereof and methods of preparing and using same” (priority 1994, dated 1998):
# pIC50: −log10 of the molar value. Where two headings read alike, the source gives them in different places.
# Test system: postsynaptic QUIS-R of locust leg muscle
# Assay: Antagonism of neurally-evoked twitch contraction of locust retractor unguis nerve-muscle preparation
# Design: species or system Schistocerca gregaria
# Conditions: for pIC50: read-out: IC50
# From the text: Electrophysiological studies. The metathoracic retractor unguis nerve-muscle preparation of the locust Schistocerca gregaria was dissected and mounted in a small Perspex bath as described previously (21). The pharmacological activity on the locust nerve muscle preparation, using reduction in neurally evoked twitch amplitude as the measure of activity. Ten fractions were pharmacologically active. […] Further purification of this fraction by reverse-phase HPLC gave four peaks (FIG. 2B), the most pharmacologically was in the major peak (hatched FIG. 2B) . This fraction gave 1.1 mg of toxin as amorphous powder.
# The retractor unguis muscle and its nerve were dissected from the metathoracic legs of adult, female locusts (Schistocerca gregaria) and mounted in a Perspex perfusion chamber as described by Usherwood and Machili (21) and Bateman, et al. (14). The muscle was stretched to maximal body length and attached at its tendon or apodeme to a Grass FT 10-strain gauge by a short length of nylon thread. The volume of the muscle bath was about 0.5 ml and its contents could be exchanged within 1 sec. The preparation was perfused continuously at the rate of 5-10 ml min^-1 (except during the application of toxin (see below)) with standard locust saline of the following composition (mM): NaCl, 180; KCl, 10; CaCl2, 2; Hepes, 10; buffered to pH 6.8. The retractor unguis muscle is innervated by two excitatory motoneurons (30) and an inhibitory motoneuron (19,32), but the influence of the latter on the responsiveness of the muscle is slight. Maximal stimulation of the retractor unguis nerve at 0.2 Hz produced a series of twitch contractions of constant amplitude, which were maintained for many hours in good preparations. The test compounds were kept at -20° C. They were dissolved in locust saline on the day of the assay and tested at room temperature. The compounds were applied by pipette to a nerve-muscle preparation such that the contents of the perfusion bath were completely replaced by the test solution. Exposure to the test compound lasted 20 min. Because of the limited availability of some of the compounds, the preparation was not perfused during this period. However, the amplitude of the retractor unguis muscle twitch rarely changed by more than 5-10% over a 20 minute period. During application of the test solutions the stimulation frequency was raised to 0.6 Hz for brief periods to test for stimulus frequency-dependent effects on twitch amplitude (31,37). Dose-inhibition data were obtained by testing the effects, on single retractor unguis muscle preparations, of a range of concentrations of the test compounds. Each concentration of the respective samples was tested at least thee times, and each compound was assayed usually over a 100-fold concentration range (a total of 7-10 concentrations). The standard deviations for twitch inhibition for any given concentration of a toxin rarely exceed 10%. Those compounds for which the deviation was greater than this are identified in Tables 1-7. There was some variation in the potency of PhTX-343 and the test compounds between nerve-muscle preparations. In order to compensate for this, the following procedure was adopted: PhTX-343 was assayed at a variety of concentrations on eight retractor unguis nerve-muscle preparations to give a cumulative dose-inhibition relationship for this toxin. The concentration of PhTX-343 which reduced the twitch contraction by 50% (IC50) was then determined by fitting a curve to the data using the following equation: [formula] where: [T]= toxin concentration, I= % inhibition, Imax =maximum inhibition= 100% and n' represents the Hill slope coefficient. […] The ratio of the actual reduction in twitch amplitude obtained with this single concentration of PhTX-343 and the 50% reduction that was anticipated from the cumulative dose-inhibition relationship for this toxin, was then used as a factor to normalize the data for the test compound. […]
# [1] = Table 6, bis analogues of PhTX-343
# [2] = Table 5, modifications to more than one region
# [3] = Table 3, region C modifications
# [4] = Table 3, relative to PhTX-343 = 1.0
# [5] = Table 1, region A modifications, 20 min exposure, normalized with PhTX-343, ** SD < 30%
# [6] = Table 1, relative to PhTX-343 = 1.0
# [7] = Table 2, region B modifications, * SD < 20%
# [8] = Table 2, relative to PhTX-343 = 1.0
# [9] = Table 4, terminal amino group modifications, * SD < 20%
# [10] = Table 4, relative to PhTX-343 = 1.0
# [11] = Table 7, mono-acyl spermine analogues
# [12] = Table 7, mono-acyl spermine analogues, relative to PhTX-343
smiles,measurement,setting,value
O=C(N[C@@H](Cc1ccc(O)cc1)C(=O)NCCCNCCCCNCCCNC(=O)[C@H](Cc1ccc(O)cc1)NC(=O)c1ccccc1)c1ccccc1,pIC50,[1],3.96
same,Relative Potency,"Table 6, relative to PhTX-343",0.2
CCCC(=O)N[C@@H](Cc1cc(I)c(O)c(I)c1)C(=O)NCCCNCCCCNCCCNC(=O)[C@@H](N)CCCNC(=N)N [drawing 66],pIC50,[2],6.15
same,Relative Potency,"Table 5, relative to PhTX-343",33
CC(=O)N[C@@H](Cc1ccc(O)cc1)C(=O)NCCCNCCCCNCCCN [drawing 42],pIC50,[3],4.30
same,Relative Potency,[4],0.7
NCCCNCCCCNCCCNC(=O)[C@H](Cc1ccc(O)cc1)NC(=O)CCCCC1SCC2NC(=O)NC21 (stereo partly drawn) [Compound 30],IC50 (M),[3],insol.
CCCC(=O)N[C@@H](Cc1ccc(O)cc1)C(=O)NCCCNCCCCNCCCN [drawing 21],pIC50,[5],4.64
same,Relative Potency,[6],1.0
NCCCNCCCCNCCCNC(=O)[C@H](Cc1ccc(O)cc1)NC(=O)c1ccccc1 [drawing 47],pIC50,[3],5.55
same,Relative Potency,[4],8.2
NCCCNCCCCNCCCNC(=O)[C@H](Cc1ccc(O)cc1)NC(=O)C1CCCCC1 [drawing 46],pIC50,[3],5.03
same,Relative Potency,[4],2.5
"CCCC(=O)N[C@@H](Cc1ccc(O)cc1)C(=O)NCCCCN [Compound 5, PhTX-4]",potency compared with PhTX-343 or other analogues (in words),,reduced potency
"CCCCCCCCCC(=O)N[C@@H](Cc1ccc(O)cc1)C(=O)NCCCNCCCCNCCCN [Compound 20, C10-PhTX-343]",potency compared with PhTX-343 or other analogues (in words),,successive increases in potency
same,pIC50,[3],5.85
same,Relative Potency,[4],16.0
CCCC(=O)N[C@@H](Cc1ccc(OC(C)=O)cc1)C(=O)NCCCNCCCCNCCCN [drawing 33],pIC50,[7],4.48
same,Relative Potency,[8],0.7
CCCC(=O)N[C@@H](Cc1ccc(O)cc1)C(=O)NCCCNCCCCNCCCNC(=O)[C@@H](N)CCCNC(=N)N [drawing 62],pIC50,[9],5.20
same,Relative Potency,[10],3.7
CC(=O)N[C@@H](Cc1ccc(O)cc1)C(=O)NCCCNCCCCNCCCN [Compound 18],potency compared with PhTX-343 or other analogues (in words),,slight but significant reduction in potency
CCCC(=O)N[C@@H](Cc1ccc(OC(C)=O)cc1)C(=O)NCCCNCCCCNCCCN [Compound 11],potency compared with PhTX-343 or other analogues (in words),,unchanged potencies
CCCCC(CNCCCN)CNCCCCNC(=O)[C@H](Cc1ccc(O)cc1)NC(=O)CCC (stereo partly drawn) [drawing 28],pIC50,[5],5.40
same,Relative Potency,[6],5.6
CCCC(=O)N[C@@H](CC(C)C)C(=O)NCCCNCCCCNCCCN [drawing 36],pIC50,[7],4.64
same,Relative Potency,[8],1.0
NCCCNCCCCNCCCNC(=O)[C@H](Cc1ccc(O)cc1)NC(=O)C1CCCCC1 [Compound 22],potency compared with PhTX-343 or other analogues (in words),,equal to that of compound 19
NCCCNCCCCNCCCNC(=O)[C@H](Cc1ccc(O)cc1)NC(=O)/C=C/c1ccccc1 [drawing 49],pIC50,[3],5.70
same,Relative Potency,[4],12.0
CCCC(=O)N[C@@H](Cc1ccc(O)cc1)C(=O)NCCCCNCCCNCCCN [drawing 22],pIC50,[5],4.74
same,Relative Potency,[6],1.3
"[N-]=[N+]=Nc1ccc(C(=O)N[C@@H](Cc2ccc(O)cc2)C(=O)NCCCNCCCCNCCCNC(=O)[C@@H](N)CCCCN)cc1 [Compound 40, N-(p-azidobenzamide)-L-tyrosyl-spermine-L-lysine-triamide]",pIC50,[2],5.48
same,Relative Potency,"Table 5, relative to PhTX-343",7
CCCC(=O)N[C@@H](Cc1ccc(O)cc1)C(=O)NCCCCNCC(C)CNCCCN (stereo partly drawn) [Compound 7],potency compared with PhTX-343 or other analogues (in words),,did not greatly alter potency
CCCC(=O)N[C@@H](C)C(=O)NCCCNCCCCNCCCN [drawing 37],pIC50,[7],4.35
same,Relative Potency,[8],0.5
[N-]=[N+]=Nc1ccc(C(=O)N[C@@H](Cc2ccc(O)cc2)C(=O)NCCCNCCCCNCCCN)cc1 [Compound 26],potency compared with PhTX-343 or other analogues (in words),,reasonably active
"CCCC(=O)NCC(=O)NCCCNCCCCNCCCN [Compound 16, N-butyryl-L-glycine-spermine-amide]",potency compared with PhTX-343 or other analogues (in words),,greatly reduced activity
CCCC(=O)N[C@@H](Cc1c[nH]c2ccccc12)C(=O)NCCCNCCCCNCCCN [Compound 17],increase in potency compared with PhTX-343,,10 fold
"CCCCC(CNCCCN)CNCCCCNC(=O)[C@H](Cc1ccc(O)cc1)NC(=O)CCC (stereo partly drawn) [Compound 8, PhTX-(butyl)433]",potency compared with PhTX-343 or other analogues (in words),,increased potency by almost six-fold
CCCC(=O)N[C@@H](Cc1ccc(O)cc1)C(=O)NCCCNCCCCNCCCNC(=O)C(N)CCCCN (stereo partly drawn) [drawing 61],pIC50,[9],4.89
same,Relative Potency,[10],1.8
C/C=C/C=C/C(=O)N[C@@H](Cc1ccc(O)cc1)C(=O)NCCCNCCCCNCCCN [drawing 45],pIC50,[3],5.80
same,Relative Potency,[4],14.0
"CCCC(=O)N[C@@H](Cc1ccc(O)cc1)C(=O)NCCCCNCCCN [Compound 4, PhTX-43]",potency compared with PhTX-343 or other analogues (in words),,reduced potency
CCCC(=O)N[C@@H](Cc1ccccc1)C(=O)NCCCNCCCCNCCCN [Compound 10],potency compared with PhTX-343 or other analogues (in words),,increased potency about three-fold
same,pIC50,[7],5.17
same,Relative Potency,[8],3.4
NCCCNCCCCNCCCNC(=O)[C@H](Cc1ccc(O)cc1)NC(=O)Cc1ccccc1 [Compound 24],potency compared with PhTX-343 or other analogues (in words),,less potent than PhTX-343
CCCCCCCCCC(=O)NCCCNCCCCNCCCN [drawing 78],pIC50,[11],5.00
same,Relative Potency,[12],2.3
CCCCCCC(=O)N[C@@H](Cc1ccc(O)cc1)C(=O)NCCCNCCCCNCCCNC(=O)[C@H](Cc1ccc(O)cc1)NC(=O)CCCCCC,IC50 (M),[1],insol.
"CCCC(=O)N[C@@H](Cc1cc(I)c(O)c(I)c1)C(=O)NCCCNCCCCNCCCNC(=O)[C@@H](N)CCCNC(=N)N [Compound 39, diiodo-PhTX-arginine]",potency compared with PhTX-343 or other analogues (in words),,more potent than PhTX-343
"CCCC(=O)N[C@@H](Cc1ccc(O)cc1)C(=O)NCCCNCCCNCCCCN [Compound 3, PhTX-334]",potency compared with natural PhTX-433 (in words),,higher potency than the natural PhTX-433 toxin
same,"physiological activity relative to that of PhTX-433, by locust muscle twitch inhibition concentration",PhTX-433 = 100%,125%
same,effect on the neurally-evoked twitch contraction (in words),toxin 1-10 μM,influenced the twitch contraction in the same qualitative fashion as PhTX-433
"CCCC(=O)N[C@@H](Cc1ccc(O)cc1)C(=O)NCCCNCCCCNCCCNC(=O)[C@@H](N)CCCNC(=N)N [Compound 36, PhTX-343-L-arginine-amide]",potency compared with PhTX-343 or other analogues (in words),,increased potency
"CCCC(=O)N[C@@H](Cc1cc(I)c(O)c(I)c1)C(=O)NCCCNCCCCNCCCNC(=O)[C@@H](N)CCCCN [Compound 38, diiodo-PhTX-lysine]",potency compared with PhTX-343 or other analogues (in words),,more potent than PhTX-343
CCCC(=O)N[C@@H](Cc1c[nH]c2ccccc12)C(=O)NCCCNCCCCNCCCN [drawing 39],pIC50,[7],5.60
same,Relative Potency,[8],9.2
CCCC(=O)N[C@@H](Cc1ccc(O)cc1)C(=O)NCCC[N+](C)(C)CCCC[N+](C)(C)CCC[N+](C)(C)C [Compound 9],potency compared with PhTX-343 or other analogues (in words),,reduced potency compared with PhTX-343
CCCCCCC(=O)NCCCNCCCCNCCCN [drawing 77],pIC50,[11],4.00
same,Relative Potency,[12],0.2
"CCCCCCC(=O)NCCCNCCCCNCCCN [Compound 48, Heptanoylspermine-amide]",potency compared with PhTX-343 or other analogues (in words),,low potencies
CCCCCCC(=O)N[C@@H](Cc1ccc(O)cc1)C(=O)NCCCNCCCCNCCCN [Compound 19],potency compared with PhTX-343 or other analogues (in words),,successive increases in potency
